One series can be described thus: Solubility. The format is physicochemical.
Series [1] can be described thus: Acute oral toxicity in mice. Particulars: in vivo, mouse, Lichfield and Wilcoxon. The format is in vivo. The method, then:
(§1) By way of example there are described below the comparative tests made on difluorohydrate of N,N'-di(hydroxyethyl) piperazine and on fluorohydrate of hexadecylamine or "ELMEX 242".
(§2) The acute toxidity was studies in rats and in mice.
(§3) The animals came from a homogeneous breed. The mice weighed between 19 and 21 g and the rats weighed from 120 to 140 g. The mice were grouped in lots of 10 and the rats in lots of 8.
(§4) The administrations took place orally at a volume of 0.5 ml per 20 g of mouse and 1 ml per 100 g of rat. The LD50 was determined by the method of Lichfield and Wilcoxon.
(§5) As regards the difluorohydrate of N,N'-di(hydroxyethyl) piperazine, the administered solution was prepared by diluting the mother solution to 65.4%, the dilutions being made after having weighed this solution. The administered dose is expressed by weight, taking account of the indicated strength of this solution.
(§6) For the solid "ELMEX 242" an aqueous suspension was prepared with the aid of solubilizing agents (e.g. Tween-polyoxyethylene sorbitan monolaurate). A very thick suspension is then obtained which tends to foam heavily, is difficult to get into the esophageal sound, and the determination of its volume is rendered difficult by the foam.
(§7) The results obtained with the "ELMEX" are therefore rather approximate.

In a further series the test system is mice. The series is described as follows: Acute oral toxicity in mice. The format is in vivo. The conditions noted are these: mouse. The method, then: as §1, §2, §3, §4, §5, §6, §7
The subject of the next series is rats. The series is described as follows: in vivo. The format is in vivo. Particulars: rat, oral; for Deaths: D + 10, 8 per lot. The method, then:
as §1, §2, §3, §4, §5, §6, §7

Series [2] can be described thus: Penetration of fluorine 18 into dental enamel after topical application (Muhlemann biopsy). More on the design: species or system children. The source says:
The anticariogenic activity of the difluorohydrate of N,N'-di(hydroxy-ethyl) piperazine has been evidenced by comparison with sodium fluoride known for its cariopreventive topical properties. A comparative study has been made of the penetration into the dental enamel of the fluorine contained in the molecule according to the invention and of the fluorine contained in sodium fluoride.
For this comparison the difluorohydrate of N,N'-di(hydroxy-ethyl) piperazine was marked at the fluorine 18, by isotopic exchange by dissolving some crystals of the product according to the invention in a solution of pure fluorine 18 without entrainer. The same was done for the sodium fluoride.
The study of the penetration of the fluorine into the enamel was made on several teeth to compare the behavior of the product of the invention and of sodium fluoride in supplying fluorine and in the penetration of the latter into the deepest layers of the dental tissue.
The tests were performed on 30 premolar teeth taken from normal children 9 to 11 years old. Eighteen teeth were treated by topical application of the radioactive solutions of the difluoro-hydrate of N,N'-di(hydroxy-ethyl) piperazine or of NaF adjusted to pH=3.5; the other 12 were treated with the same solutions adjusted to a pH of 7.4.
The radioactive solutions are obtained by dissolving 69 mg of the difluorohydrate and 81.3 mg of NaF, respectively, in 1 and 3 ml of fluorine 18 solution without entrainer. Thus solutions titering 1.23% fluorine are obtained.
As the difluorohydrate solution is already at pH=3.5, it is sufficient to acidify the NaF solution by addition of about 0.2 ml hydrochloric acid 6 M, to 3 ml of the radioactive solution.
In this case, the difluorohydrate's nature of organic salt can be preserved and its solution neutralized at 1.23% of fluorine in 1 ml by addition of about 110 mg of its N,N'-di(hydroxyethyl) piperazine base.
For the experimentation one determines two enamel plagues on each tooth. For this, one applies on the crowns, separated from each other by 2 or 3 mm, two round disks of a diameter of 3 mm cut out from adhesive tape. The crown is then covered with a layer of impermeable varnish. When the varnish is dry, the patches of adhesive tape are removed, thus bearing the two zones of enamel to be treated.
The spot application of the fluorinated solution is done by means of a sponge imbibed with 0.5 ml of the solution. This sponge is inserted in a polyethylene tube to limit the surface of contact between tooth and sponge to the circumference of the enamel zone treated.
The sampling of the enamel is done by Muhlemann's biopsy technique: A patch of blotting paper impregnated with 4 microliters of perchloric acid 2 M is applied on the trated enamel for 30 seconds. The enamel is dried with a second patch of blotting paper. It is on these patches which contain the dissolved enamel that we measure the radioactivity.
There are given in Table I all the results relating to the acid treatment, in Table II all the results relating to the treatment at neutral pH. The fluorine values are those obtained by measuring the radioactivity of the samples.
The columns […] and N2 represent the mass of fluorine measured on the second biopsy.
We have marked R1 and R1 and R2 the ratios G1 /G2 and N1 /N2, and R3 the ratio. [formula] R1 and R2 permitting to compare the quantities of fluorine at the same depth. R3 permits comparing the accumulation of fluorine in the tooth.

The record followed here is patent publication US4323550A, “Halogenohydrates of N,N-disubstituted derivatives of piperazine having anticariogenic properties” (priority 1976, dated 1982).

For orientation: LD50 means the dose at which mortality reaches 50%. Read a low LD50 as a more toxic substance.

SMILES strings stand for the structures.

As to `OCCN1CCN(CCO)CC1` [DI-IODOHYDRATE OF N,N'-DI-(BETA-HYDROXY-ETHYL) PIPERAZINE], the “solubility in water, in alcohols, glycols” value in “Solubility” is “soluble”.
On to `CCCCCCCCCCCCCCCCN` [ELMEX 242, fluorohydrate of hexadecylamine], for which the LD50 at 240 h in series [1] was 1250 mg/kg. In addition, the “course: death and recovery” value with mice was “Death occurs in a few hours; for others recovery is also fairly rapid”. For the same compound, the symptoms entry in the series with mice was “The animals have diarrhea. The mice are totally immobile and tremble”. Also, the Deaths in the series on mice (600 mg/kg, D + 1, 10 per lot) is recorded as 0; in the series with mice (600 mg/kg, D + 2, 10 per lot), 0; in the series on mice (600 mg/kg, D + 5, 10 per lot), 0; in the series with mice (600 mg/kg, D + 10, 10 per lot) it was 0; in the series on mice (800 mg/kg, D + 1, 10 per lot), 0; with mice (800 mg/kg, D + 2, 10 per lot) it was 0. In addition, the Deaths in the series on mice (800 mg/kg, D + 5, 10 per lot) is 0; with mice (800 mg/kg, D + 10, 10 per lot), 0; in the series with mice (1000 mg/kg, D + 1, 10 per lot), 1; with mice (1000 mg/kg, D + 2, 10 per lot) it was 2; with mice (1000 mg/kg, D + 5, 10 per lot), 2; in the series with mice (1000 mg/kg, D + 10, 10 per lot) it was 2. In addition, the Deaths in the series with mice (1250 mg/kg, D + 1, 10 per lot) is 1; in the series on mice (1250 mg/kg, D + 2, 10 per lot) it was 2; in the series on mice (1250 mg/kg, D + 5, 10 per lot), 3; in the series on mice (1250 mg/kg, D + 10, 10 per lot), 3; in the series with mice (1500 mg/kg, D + 1, 10 per lot), 4; with mice (1500 mg/kg, D + 2, 10 per lot), 7. The Deaths in the series with mice (1500 mg/kg, D + 5, 10 per lot) is 9; in the series with mice (1500 mg/kg, D + 10, 10 per lot), 9; with mice (1750 mg/kg, D + 1, 10 per lot) it was 3; in the series on mice (1750 mg/kg, D + 2, 10 per lot), 4; with mice (1750 mg/kg, D + 5, 10 per lot), 9; in the series on mice (1750 mg/kg, D + 10, 10 per lot), 9. Further, the Deaths in the series with mice (2000 mg/kg, D + 1, 10 per lot) is on record as 9; in the series with mice (2000 mg/kg, D + 2, 10 per lot), 10; in the series on mice (2000 mg/kg, D + 5, 10 per lot) it was 10; in the series with mice (2000 mg/kg, D + 10, 10 per lot), 10; in the series on mice (2500 mg/kg, D + 1, 10 per lot), 10; in the series on mice (2500 mg/kg, D + 2, 10 per lot), 10. The Deaths came to 10 in the series with mice (2500 mg/kg, D + 5, 10 per lot); 10 in the series on mice (2500 mg/kg, D + 10, 10 per lot); 0 in the series with rats (125 mg/kg); 0 in the series on rats (150 mg/kg); 0 in the series on rats (500 mg/kg). Moreover, the symptoms / behavior result in the series on rats is recorded as “The behavior of the animals is normal”.
With `[F-].[Na+]` [NaF, sodium fluoride, reference compound], the “mean value of R2” value in series [2] (neutral medium, 12 teeth) is 3.6. Moreover, the “average fluorine sampled in the two biopsies, acid pH compared with neutral pH” value in series [2] (pH 3.5 versus pH 7.4) is on record as 3.6.
